Source: US5705693A, “Cationic lipids” (Gilead Sciences, Inc., priority 1995, dated 1998)

Experiments:
[1] = system: A10 cells; assay: Transfection of A10 cells with ODN1 (Example 6); format: cell-based, rat; details: 18 h, 10% FBS; for cells transfected A10: 15 μg/mL lipid, 1:1 DOPE, 250 pmole ODN1
Description: (§1) Preparation of lipid-nucleic acid complexes and cell transfection.
Cells at about 50-100% confluency were used.

[2] = system: SK-OV-3 cells; assay: Transfection of SK-OV-3 cells with ODN1 in 40% or 80% FBS (Example 7); format: cell-based, human; details: 18 h, 500 pmole ODN1, 1:1 DOPE
Description: as §1
80% serum approximates the serum protein and ion conditions that exist in vivo in mammalian circulation. 30 is thus suitable for transfecting cells under physiological conditions.

[3] = system: CV-1 cells; assay: Transfection of CV-1 cells with ODN1 and toxicity (Example 6); details: 18 h, 10% FBS; for cells transfected CV-1: 15 μg/mL lipid, 1:1 DOPE, 250 pmole ODN1
Protocol: Preparation of lipid-nucleic acid complexes and cell transfection. Lipids were prepared for complexing with nucleic acids by drying a cationic lipid-colipid mixture in CHCl3 under argon. The molar ratio of cationic lipid to colipid was adjusted by adding appropriate amounts of each lipid in CHCl3 together prior to drying. Usually 10 mL of water was added to a 100 mL round bottom flask containing a dried film of lipid and colipid. The lipids consisted of a mixture of an invention cationic lipid and the colipid DOPE (dioleylphosphatidylethanolamine). Sterile-filtered water or a low ionic strength aqueous buffer such as physiological saline, TE (10 mM tris, 1 mM EDTA, pH 7-8) or Ringer's solution was then added to the dried lipids to obtain a lipid suspension at 1 mg lipid/mL followed by a 10 minute bath sonication (Ultra Sonik 100, NEY) at room temperature to suspend the lipids in the flask. The suspended lipids (10 mL) were then sonicated 5 times for 15 seconds per sonication at 0°-4° C. with about 30-60 seconds between pulses. Sonication was usually conducted in a 15 mL polypropylene culture tube. A probe sonicator (Sonifier 250, Branson Ultrasonics) was used at maximum power for the ice bath sonication and for each 15 second pulse. The lipid suspension was optionally filtered or centrifuged (2000 rpm, 10 minutes at 0-4° C.) to remove large particulate matter and the resulting lipid suspensions were kept at 4° C. until used.
Lipid nucleic acid complexes were prepared by mixing (a) 10% v/v (usually 100 μL) oligonucleotide in Optimem™ (Bethesda Research Labs, Inc.) at room temperature (about 19°-24° C.) with (b) 10% v/v lipid suspension in Optimem™ at room temperature and allowing the mixture to stand for about 15 minutes, followed by adding (c) 80% v/v Optimem™ without serum or 80% v/v tissue culture medium (Modified Essential Medium (MEM), Dulbecco's Modified Eagle's Medium (DMEM), etc. containing 0-80% fetal bovine serum (Hyclone, Inc.). The lipid and nucleic acid solutions could also be prepared using DMEM without serum, a low ionic strength (less than about 200 mM total ion concentration) aqueous medium lacking phosphate (TE, etc) or water in place of Optimem™. Typically, 100 μL each of Optimem™ containing oligonucleotide (100-500 pmole) and Optimem™ containing added lipid was mixed with 800 μL of serum free Optimem™ or with 800 μL of tissue culture medium containing 10-80% FBS. Generally, 5 or 10 μL (5 or 10 μg) of lipid was added to 95 or 90 μL of Optimem™ to give a final 1 mL transfection preparation containing 5 or 10 μg of lipid and 250 pmole of oligonucleotide. The lipid-nucleic acid mixture was held at room temperature for about 15 min hours before adding medium to give the final transfection preparation volume (usually 1 mL) and warming to 37° C. and immediately applying onto the cells. The transfection mixture was left on the cells for 2 to 24 hours (at 37° C.), with a 6 hour time period commonly used.
Cells were typically transfected using 1 mL of transfection mixture per well in a 6-well plate. Cells at about 50-100% confluency were used. […] Typical transfections with the invention lipids used cells at about 60-100% confluency.

[4] = system: CV-1 cells; assay: Transfection of CV-1 cells with ODN1 and toxicity (Example 22); format: cell-based, African green monkey; details: 2:1 DOPE, 6 h, 10% FBS, 250 pmole ODN1
Protocol: (§2) Lipids 35, 52, 54 and 55 were each prepared using a 2:1 lipid:DOPE molar ratio as follows. Two molar equivalents of each lipid in CHCl3 and one equivalent of DOPE in CHCl3 was dried under reduced pressure by rotovap at room temperature. Deionized water was then added to give 1 mg/mL of total lipid. 10 mL of water containing 10 mg of lipid was vortexed for 5 minutes in a 100 mL round bottom flask. 2 mL aliquots were then used to prepare lipid suspensions for complexing with ODN1. Each preparation was obtained by 6 cycles of freezing on dry ice and thawing in a 37° C. water bath.

[5] = system: cdc-2 kinase; assay: cdc-2 antisense oligonucleotide analog transfection, Western blot (Example 22); format: cell-based, African green monkey; details: 30 nM cdc-2 antisense oligonucleotide analog, 2.5 and 5.0 μg lipid
Description: The oligonucleotide contained 5-(1-propynyl)cytosine in place of cytosine and 5-(1-propynyl)uracil in place of uracil. A control oligonucleotide analog having a mismatched base sequence was also used to check for any non-specific effect on cdc-2 kinase levels in the transfected cells caused by the oligonucleotide analog. A control containing only lipid was also used as a control. […] Protein levels were examined by Western blot analysis.

[6] = Transfection of CV-1 cells with ODN1 and toxicity (Example 22); format: cell-based, African green monkey; details: monkey, cv-1 cells; 10.0 μg lipid
Protocol: as §2

Row | Structure (SMILES) | cells transfected A10 [1] | cells transfected CV-1 [3] | % cells transfected ([4]; 1 μg lipid) | % cells transfected ([4]; 2.5 μg lipid) | % cells transfected ([4]; 5.0 μg lipid) | % cells transfected ([4]; 10.0 μg lipid) [%] | cdc-2 protein levels [5] | also measured
1 | CCCCCCCCCCCCCCCCCCN(CCCCCCCCCCCCCCCCCC)C(=O)CCC(=O)NCCCN1CCN(CCCN)CC1 [Compound 38] | 85 | 70 |  |  |  |  |  | toxicity to A10 cells ([1]; in words): little or no toxicity; transfection of A10 in the presence of serum ([1]; in words): efficiently transfected; % SK-OV-3 transfected ([2]; 40% serum): < 10%; % SK-OV-3 transfected ([2]; 80% serum): 0%; toxicity to CV-1 cells ([3]; in words): little or no toxicity; transfection of CV-1 in the presence of serum ([3]; in words): efficiently transfected
2 | CCCCCCCCCCCCNC(=O)CCC(=O)NCCCN1CCN(CCCN)CC1 [Compound 44] | < 10 | < 5 |  |  |  |  |  | 
3 | CCCCCCCCCCCCCCN(CCCCCCCCCCCCCC)C(=O)CNC(=O)C(N)CCCNC(=N)NC(C)=O.Cl.Cl (centres unmarked) [Compound 52] |  |  | 30-40% | 60% | 60% | 60 |  | 
4 | CCCCCCCCCCCCCCN(CCCCCCCCCCCCCC)C(=O)CNC(=O)C(N)CCCNC(=N)NC(=O)OC(C)C.Cl.Cl (centres unmarked) [Compound 53] |  |  | 30% | 70% | 100% | 60 | efficiently reduced cdc-2 protein levels | 
5 | CCCCCCCCCCCCCCN(CCCCCCCCCCCCCC)C(=O)CNC(=O)C(N)CCCNC(=N)NC(=O)C(C)(C)C.Cl.Cl (centres unmarked) [Compound 54] |  |  | 10-20% | 30-40% | 70-80% | 40 |  | 
6 | CCCCCCCCCCCCCCN(CCCCCCCCCCCCCC)C(=O)CNC(=O)[C@@H](N)CCCNC(=N)N [Compound 55] |  |  | 40% | 75% | 100% | 40 | efficiently reduced cdc-2 protein levels | cytotoxicity at 6 h [6]: > 40%
